Test results as given in patent US7932022B2, “Dual-labeled molecular constructs for detection of biochemical reactions” (BioArray Solutions, Ltd., priority 2002, dated 2011).
Read-outs that look alike come from different tables or passages of the source. Where no end group is shown, it is not given here. [ ]: non-standard residue; d: D form. The star is where a group is joined. Biotin = O=C1N[C@H]2[C@H](CS[C@H]2CCCCC(=O)*)N1; pY = N[C@@H](Cc1ccc(OP(=O)(O)O)cc1)C(=O)O

Legend:
[1] = tested on: phosphorylated peptide-specific monoclonal mouse IgG antibodies; conditions: three-antibody detection, six bead types
[2] = tested on: phosphorylated peptide-specific monoclonal mouse IgG antibodies; conditions: three-antibody detection
Excerpt: After coupling, the particles were washed by using PBST. Then, all of the peptide-functionalized beads were combined into a test tube for assembly of microparticle array according to known prior art methods, such as LEAPS, and direct disposition assembly method previously described in Provisional Application Ser. No. 60/343,621, filed Dec. […] The assembled microparticle array is blocked by using 1% BSA in PBST. For immunodetection of phosphorylated peptides on the array, the chip is incubated with monoclonal antibodies specific for the phosphorylation modification. The incubation is carried out in a humid chamber for binding of the antibodies to the phosphorylated peptides. The unbound antibodies are washed away by using PBST. For the purpose of signal amplification, the chip is incubated with secondary antibodies specific for the primary monoclonal antibodies bound on the arrays. The signal may be further amplified by incubation of the chips with fluorescent-labeled antibodies specific for the secondary antibodies. After washing with PBST, the array is examined by using a fluorescent microscope according to known prior art methods, such as the READ assays.
The peptide-functionalized microparticles are assembled into a particle array. The chip was incubated with phosphorylated peptide-specific monoclonal mouse IgG antibodies followed by incubation with mouse IgG-specific secondary antibodies, and then Cy5-labeled third antibodies for detection using a fluorescent microscope. Fluorescence was detected by Cy5 signals. […] The error bars in FIG. 22 represent standard deviation of the respective mean intensities.

[3] = tested on: monoclonal antibodies specific for the phosphorylation modification; conditions: tyramide detection
Excerpt: […]

Substance | Cy5 signal intensity at 1000 ms integration [1] | Cy5 signal intensity at 1000 ms integration [2] | FITC signal intensity at 1000 ms integration [3]
Biotin-CEGPWLEEEEEA[pY]GWMDFK-Biotin [Peptide-P-2] | approximately 14,000 units | 15,500 units | 15,000 units
Biotin-CRRLIEDAE[pY]AARGK [Peptide-P-3] | approximately 14,000 units | – | –
Biotin-KVEKIGEGTYGVVYK [Ty-1] | approximately 1000 units | approximately 1400 units | approximately 700 units
Biotin-KVEKIGEGT[pY]GVVYK [Ty-P-1] | approximately 14,000 units | 15,000 units | 11,000 units
Biotin-CKVEKIGEGT[pY]GVVYK [Peptide-P-1] | approximately 14,000 units | – | –
